Here are results for 8 molecules from EP3290412A1, “HIV-1 NUCLEOCAPSID INHIBITORS” (Università degli Studi di Siena, priority 2016, dated 2018).

The data set deals with HeLa cells. Put plainly: HeLa Proliferation assay (CellTiter Glo). Type of data set: cell-based. The conditions noted are these: 72 hours. The method in brief:
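Viability measured with CellTiter Glo after 72 h compound exposure (37 °C, 5% CO2, humidified) of HeLa cells seeded at 2000 per well in 10% FBS DMEM without phenol red and allowed 4 h recovery.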
(In ATP-based viability assays light output follows the ATP content of the culture.)
As to `Cc1ccnc(-c2nc(O)c(O)c(C(=O)NC3(C4CCCCC4)CC3)n2)c1` [Compound 84, N-(1-cyclohexylcyclopropyl)-5,6-dihydroxy-2-(4-methylpyridin-2-yl)pyrimidine-4-carboxamide], the “Proliferation assay HELA TD50” value was found to be 1.9245 µM. In the case of `Cc1cc(-c2nc(O)c(O)c(C(=O)N[C@H](C)C3CCCCC3)n2)nc2ccccc12` [Compound 73, (R)-N-(1-cyclohexylethyl)-5,6-dihydroxy-2-(4-methylquinolin-2-yl)pyrimidine-4-carboxamide], the “Proliferation assay HELA TD50” value amounted to 5.3719 µM.

Regarding `C[C@H](NC(=O)c1nc(-c2cc3ccccc3cn2)nc(O)c1O)C1CCCCC1` [Compound 72, (S)-N-(1-cyclohexylethyl)-5,6-dihydroxy-2-(isoquinolin-3-yl)pyrimidine-4-carboxamide], the “Proliferation assay HELA TD50” value was 3.4875 µM.

Regarding `CC(NC(=O)c1nc(-c2nccc3ccccc23)nc(O)c1O)C1CCC(F)(F)CC1` (centres unmarked) [Compound 90, N-(1-(4,4-difluorocyclohexyl)ethyl)-5,6-dihydroxy-2-(isoquinolin-1-yl)pyrimidine-4-carboxamide], the “Proliferation assay HELA TD50” value worked out at 6.4522 µM. For `C[C@H](NC(=O)c1nc(-c2ccc(C(=O)OCc3ccccc3)cn2)nc(O)c1O)C1CCCCC1` [Compound 70, benzyl (S)-6-(4-((1-cyclohexylethyl)carbamoyl)-5,6-dihydroxypyrimidin-2-yl)nicotinate] the value was 4.1006 µM; for `C[C@H](NC(=O)c1nc(-c2ccc3ccccc3n2)nc(O)c1O)C1CCCCC1` [Compound 75, (S)-N-(1-cyclohexylethyl)-5,6-dihydroxy-2-(quinolin-2-yl)pyrimidine-4-carboxamide], 7.5355 µM; for `C[C@@H](NC(=O)c1nc(-c2cc(C(=O)NCc3ccccc3)ccn2)nc(O)c1O)C1CCCCC1` [Compound 74, (R)-2-(4-(benzylcarbamoyl)pyridin-2-yl)-N-(1-cyclohexylethyl)-5,6-dihydroxypyrimidine-4-carboxamide], 3.6728 µM. As for `C[C@H](NC(=O)c1nc(-c2cc(C(=O)OCc3ccccc3)ccn2)nc(O)c1O)C1CCCCC1` [Compound 71, benzyl (S)-2-(4-((1-cyclohexylethyl)carbamoyl)-5,6-dihydroxypyrimidin-2-yl)isonicotinate], the “Proliferation assay HELA TD50” value worked out at 12.825 µM.
